According to patent US20260083851A1 (AVILAR THERAPEUTICS, INC., priority 2022, published 2026):

These molecules were tested against T1, ASGP receptor (biotinylated ASGPR) (Homo sapiens, UniProt P07306). Conditions: SPR, Biacore 8K, 25° C.; Table 1A; read-out: ASGPR KD.
T1 construct: biotin (biotinylated)
T1 sequence (P07306 1-291): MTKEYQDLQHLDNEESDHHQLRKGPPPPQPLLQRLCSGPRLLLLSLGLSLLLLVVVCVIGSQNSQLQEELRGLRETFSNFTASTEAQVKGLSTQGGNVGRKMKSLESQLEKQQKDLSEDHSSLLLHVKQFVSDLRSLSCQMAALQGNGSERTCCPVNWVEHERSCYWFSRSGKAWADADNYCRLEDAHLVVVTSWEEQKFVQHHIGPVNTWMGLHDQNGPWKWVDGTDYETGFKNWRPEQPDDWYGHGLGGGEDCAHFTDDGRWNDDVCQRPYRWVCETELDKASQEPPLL
Format: binding
`O[C@@H]1[C@H](O)[C@@H](Nc2cncc(C(F)(F)F)n2)CO[C@@H]1CNc1ccnnc1` [A41, (2R,3R,4R,5S)-2-((pyridazin-4-ylamino)methyl)-5-((6-(trifluoromethyl)pyrazin-2-yl)amino)tetrahydro-2H-pyran-3,4-diol] showed a Kd of under 10 µM.
`NC1CC2(C1)CC(NC(=O)C[C@H]1OC[C@H](Nc3cncc(C(F)(F)F)n3)[C@@H](O)[C@H]1O)C2` (stereo partly drawn) [A92, N-(6-aminospiro[3.3]heptan-2-yl)-2-((2R,3R,4R,5S)-3,4-dihydroxy-5-((6-(trifluoromethyl)pyrazin-2-yl)amino)tetrahydro-2H-pyran-2-yl)acetamide] was tested, and the Kd was under 10 µM.
`O=C(NC[C@H]1OC[C@H](Nc2cncc(C(F)(F)F)n2)[C@@H](O)[C@H]1O)c1ncc[nH]1` [A40, N-(((2R,3R,4R,5S)-3,4-dihydroxy-5-((6-(trifluoromethyl)pyrazin-2-yl)amino)tetrahydro-2H-pyran-2-yl)methyl)-1H-imidazole-2-carboxamide] gave a Kd of under 10 µM.
Molecule `O=C(NC[C@H]1OC[C@H](Nc2cncc(C(F)(F)F)n2)[C@@H](O)[C@H]1O)c1cnco1` [A48, N-(((2R,3R,4R,5S)-3,4-dihydroxy-5-((6-(trifluoromethyl)pyrazin-2-yl)amino)tetrahydro-2H-pyran-2-yl)methyl)oxazole-5-carboxamide] has a Kd of under 10 µM.
For `O=C(NC[C@H]1OC[C@H](Nc2cncc(C(F)(F)F)n2)[C@@H](O)[C@H]1O)c1ccc2ncncc2c1` [A17, N-(((2R,3R,4R,5S)-3,4-dihydroxy-5-((6-(trifluoromethyl)pyrazin-2-yl)amino)tetrahydro-2H-pyran-2-yl)methyl)quinazoline-6-carboxamide], the Kd was under 10 µM.
Work on `OC[C@H]1OC[C@H](Nc2cncc(Br)n2)[C@@H](O)[C@H]1O` [A138, (2R,3R,4R,5S)-5-((6-bromopyrazin-2-yl)amino)-2-(hydroxymethyl) tetrahydro-2H-pyran-3,4-diol] yielded a Kd of under 10 µM.
`O=C(CC12CC3CC(CC(C3)C1)C2)NC[C@H]1OC[C@H](Nc2cncc(C(F)(F)F)n2)[C@@H](O)[C@H]1O` [A12, 2-((3R,5R,7R)-adamantan-1-yl)-N-(((2R,3R,4R,5S)-3,4-dihydroxy-5-((6-(trifluoromethyl)pyrazin-2-yl)amino)tetrahydro-2H-pyran-2-yl)methyl)acetamide] gave a Kd of under 10 µM.
With `O=C(O)c1ccc(N2CCC(CN3CCN(C[C@H]4OC[C@H](Nc5cncc(C(F)(F)F)n5)[C@@H](O)[C@H]4O)CC3)CC2)cc1` [A31, 4-(4-((4-(((2R,3R,4R,5S)-3,4-dihydroxy-5-((6-(trifluoromethyl)pyrazin-2-yl)amino)tetrahydro-2H-pyran-2-yl)methyl)piperazin-1-yl)methyl)piperidin-1-yl)benzoic acid] the Kd was under 10 µM.

Same assay, conditions: SPR, Biacore 8K, 25° C.; Table 1B; read-out: ASGPR Kd
`O[C@@H]1[C@H](O)[C@@H](Nc2cccc(OC(F)(F)F)n2)CO[C@@H]1COc1cccc(OC(F)(F)F)n1` [A144, (2R,3R,4R,5S)-5-((6-(trifluoromethoxy)pyridin-2-yl)amino)-2-(((6-(trifluoromethoxy)pyridin-2-yl)oxy)methyl) tetrahydro-2H-pyran-3,4-diol] showed a Kd of under 10 µM.
In the case of `OC[C@H]1OC[C@H](Oc2cncc(C(F)(F)F)n2)[C@@H](O)[C@H]1O` [A141, (2R,3R,4S,5S)-2-(hydroxymethyl)-5-((6-(trifluoromethyl)pyrazin-2-yl)oxy)tetrahydro-2H-pyran-3,4-diol], the Kd is reported as under 10 µM.

Same assay, conditions: SPR, Biacore 8K, 25° C.; Table 1C, numeric bound; read-out: ASGPR KD
`OC[C@H]1OC[C@H](Nc2ncc3c(n2)CCC3)[C@@H](O)[C@H]1O` [A182, (2R,3R,4R,5S)-5-((6,7-dihydro-5H-cyclopenta[d]pyrimidin-2-yl)amino)-2-(hydroxymethyl)tetrahydro-2H-pyran-3,4-diol] gave a Kd of over 30 µM.
In the case of `OC[C@H]1O[C@@H](c2ccccc2)[C@H](Oc2cccc(C(F)(F)F)n2)[C@@H](O)[C@H]1O` [A208, (2R,3R,4S,5R,6S)-2-(hydroxymethyl)-6-phenyl-5-((6-(trifluoromethyl)pyridin-2-yl)oxy)tetrahydro-2H-pyran-3,4-diol], the Kd is reported as over 30 µM.

Same assay, conditions: SPR, Biacore 8K, 25° C.; Table 1C; read-out: ASGPR KD
For `O=C(O)c1ccc(-c2ccc(OC[C@H]3OC[C@H](Nc4cncc(C(F)(F)F)n4)[C@@H](O)[C@H]3O)cc2)cc1` [A215, 4′-(((2R,3R,4R,5S)-3,4-dihydroxy-5-((6-(trifluoromethyl)pyrazin-2-yl)amino)tetrahydro-2H-pyran-2-yl)methoxy)-[1,1′-biphenyl]-4-carboxylic acid], the Kd was under 10 µM.
`O[C@@H]1[C@H](O)[C@@H](Nc2cccc(C(F)(F)F)n2)CO[C@@H]1COc1cnccn1` [A239] gave a Kd of under 10 µM.
In the case of `O[C@@H]1[C@H](O)[C@@H](Oc2cccc(C(F)(F)F)n2)CO[C@@H]1COc1ncccn1` [A235, (2R,3R,4S,5S)-2-((pyrimidin-2-yloxy)methyl)-5-((6-(trifluoromethyl)pyridin-2-yl)oxy)tetrahydro-2H-pyran-3,4-diol], the Kd is reported as under 10 µM.
`[O-][S+](C[C@H]1OC[C@H](Oc2cccc(C(F)(F)F)n2)[C@@H](O)[C@H]1O)c1ccccc1` (stereo partly drawn) [A311] was tested, and the Kd was under 10 µM.
With `O[C@@H]1[C@H](O)[C@@H](Oc2cccc(C(F)(F)F)n2)CO[C@@H]1COc1ccccc1` [A234, (2R,3R,4S,5S)-2-(phenoxymethyl)-5-((6-(trifluoromethyl)pyridin-2-yl)oxy)tetrahydro-2H-pyran-3,4-diol] the Kd was under 10 µM.
For `O=C(O)c1cnc(OC[C@H]2OC[C@H](Nc3cncc(C(F)(F)F)n3)[C@@H](O)[C@H]2O)cn1` [A187, 5-(((2R,3R,4R,5S)-3,4-dihydroxy-5-((6-(trifluoromethyl)pyrazin-2-yl)amino)tetrahydro-2H-pyran-2-yl)methoxy)pyrazine-2-carboxylic acid], the Kd was under 10 µM.
Molecule `O[C@@H]1[C@H](O)[C@@H](Nc2cncc(C(F)(F)F)n2)CO[C@@H]1CN1Cc2ccccc2C1` [A231, (2R,3R,4R,5S)-2-(isoindolin-2-ylmethyl)-5-((6-(trifluoromethyl)pyrazin-2-yl)amino)tetrahydro-2H-pyran-3,4-diol] has a Kd of under 10 µM.
Molecule `OC[C@H]1O[C@H](c2ccccc2)[C@H](Oc2cccc(C(F)(F)F)n2)[C@@H](O)[C@H]1O` [A329] has a Kd of under 10 µM.
Work on `C[C@H]1O[C@@H](c2ccc(N3CCNCC3)cc2)[C@H](Oc2cccc(C(F)(F)F)n2)[C@@H](O)[C@H]1O` [A303] yielded a Kd of under 10 µM.
Work on `O[C@@H]1[C@H](O)[C@@H](Oc2cccc(C(F)(F)F)n2)CO[C@@H]1CN1CCCCC1` [A233, (2R,3R,4S,5S)-2-(piperidin-1-ylmethyl)-5-((6-(trifluoromethyl)pyridin-2-yl)oxy)tetrahydro-2H-pyran-3,4-diol] yielded a Kd of under 10 µM.

Same assay, conditions: SPR, Biacore 8K, 25° C.; Table 1D; read-out: ASGPR KD
`O[C@@H]1[C@@H](Oc2cccc(C(F)(F)F)n2)CN(c2ccc(C(F)(F)F)cn2)C[C@@H]1O` [A427] was tested, and the Kd was under 10 µM.
In the case of `O=C(c1ccccn1)N1C[C@H](Nc2cncc(C(F)(F)F)n2)[C@@H](O)[C@@H](O)C1` [A423], the Kd is reported as under 10 µM.
`COC(=O)c1ccc(-c2ccc(C(=O)N3C[C@H](Nc4cncc(C(F)(F)F)n4)[C@@H](O)[C@@H](O)C3)cc2)cc1` [A391] showed a Kd of under 10 µM.
In the case of `OCC1CCN(c2ccc(N3C[C@H](Nc4cncc(C(F)(F)F)n4)[C@@H](O)[C@@H](O)C3)nn2)CC1` [A394], the Kd is reported as under 10 µM.

Same assay, conditions: SPR, Biacore 8K, 25° C.; Table 1E; read-out: ASGPR KD
`C[C@H]1O[C@H](CO)[C@H](Oc2nccc(C(F)(F)F)n2)[C@@H](O)[C@H]1O` [A437] was tested, and the Kd was 10 to 100 µM.
Work on `C[C@H]1O[C@H](COc2ccncn2)[C@H](Oc2cccc(C(F)(F)F)n2)[C@@H](O)[C@H]1O` [A446] yielded a Kd of under 10 µM.
With `C[C@H]1O[C@H](COc2cccnn2)[C@H](Oc2cccc(C(F)(F)F)n2)[C@@H](O)[C@H]1O` [A441] the Kd was under 10 µM.
In the case of `C[C@H]1O[C@H](CO)[C@H](Oc2cccc(C(F)(F)F)n2)[C@@H](O)[C@H]1O` [A438], the Kd is reported as under 10 µM.
